The text below walks through data of US20250027041A1, “COMPOSITION FOR INDUCING TRANSDIFFERENTIATION AND STEM CELLS TREATED THEREWITH” (YJ CERAPEUTICS INC., priority 2021, published 2025).

The test system of assay [1] is HES1, Sox2 and OCT4 gene promoters (CtBP1, CtBP1-LSD1 complex). Kind of assay: ChIP assay, target genes of CtBP1-YJ102. To be noted: YJ102, 2 days, UCB-MSC. The format is cell-based, human. How it is done:
To identify a target gene of CtBP1-YJ102 in human UCB-MSC, chromatin immunoprecipitation (ChIP) assay was performed. Specifically, 2×10^6 human UCB-MSCs were dispensed into a 100 mm culture dish, treated with 10 μl of YJ102 (30 mM) or DMSO (control) the next day, and incubated for 2 days. For cross-linking and DNA sharing, the cells were added with formaldehyde to be 1% to the culture dish in which UCB-MSCs were incubated and incubated at 37° C. for 10 minutes to be fixed. The culture medium was removed and washed twice with PBS containing a protease inhibitor to collect the cells. The cells were centrifuged at 3000 rpm at 4° C. for 5 minutes to remove the supernatant, and the cells were added with an SDS lysis buffer containing a protease inhibitor, incubated on ice for 10 minutes, and lysed by ultrasound. The cells were centrifuged at 13,000 rpm at 4° C. for 10 minutes, the supernatant was transferred to a new microcentrifuge tube, and added with 1/10 volume of ChIP Dilution Buffer. Thereafter, DNA was purified and subjected to agarose gel electrophoresis to confirm that the DNA was shared at 200 to 1000 bp. In addition, for chromatin immunoprecipitation, the Protein G agarose slurry was washed with PBS, blocked with 1 ml of 1% BSA, and then washed with PBS, added with a cell lysate lysed by ultrasound and primary antibodies included anti-CtBP1 antibody (Cat. 07-306, Millipore), anti-LSD1 antibody (Cat. A1156, Abclonal), and Normal rabbit IgG (Cat. 12-370, Merck Millipore) (control group) at 1 μg each, and then incubated using a rotator overnight at 4° C. The next day, the supernatant was removed by centrifugation, and DNA-antibody-agarose beads were washed once with Low Salt Immune Complex Wash Buffer; High Salt Immune Complex Wash Buffer; and LiCl Immune Complex Wash Buffer in sequence, and then washed twice with 1×TE. The DNA-antibody-agarose beads were added with 250 μl of elution buffer (1% SDS, 0.1M NaHCO3), incubated at room temperature for 15 minutes using a rotator, and centrifuged, and the supernatant was transferred to a new microcentrifuge tube. The elution process was repeated one more time and the eluate was mixed. The eluate was added with 20 μl of 5 M NaCl, heated at 65° C. for 4 hours, and then added with 10 μl of 0.5 M EDTA, 20 μl of 1 M Tris-HCl (pH 6.5), and 2 μl of proteinase K (10 mg/ml) and incubated at 45° C. for 1 hour. Phenol/chloroform extraction and ethanol precipitation were performed, the DNA pellet was resuspended in DW, and then real-time quantitative PCR was performed using primers shown in Table 2 below.

Assay [2] has as its target CtBP1 (Homo sapiens, UniProt Q13363). Kind of assay: DARTS assay, CtBP1. The class given is binding. Also noted: expressed in transfected cells; host or cells: human UCB-MSC (Kang Stem Cell), lysate. How it is done: To identify proteins binding to compounds of the present invention, YJ101 (Chemical Formula 1), YJ102 (Chemical Formula 2), and YJ103 (Chemical Formula 3), in human umbilical cord blood-derived mesenchymal stem cells (UCB-MSCs), DART assay was performed. Specifically, UCB-MSCs (Kang Stem Cell, Passage #6) were dispensed into a 100 mm culture dish and incubated in a KSB-3 medium (Cat. K3901, Kang Stem Cell) containing 10% FBS (Cat. 16000044), and then collected and washed with PBS. Thereafter, the cells were added with an IP50 lysis buffer [50 mM Tris-HCl (pH 7.4), 150 mM NaCl, 2 mM MgCl2, and 0.1% NP40], sonicated, and centrifuged at 13,000×g for 10 minutes at 4° C. to obtain the supernatant. The supernatant was added with 1/10 volume of 10×TNC buffer [500 mM Tris-HCl (pH 8.0), 500 mM NaCl, and 100 mM CaCl2)], and protein concentration was measured using a Bradford method. Thereafter, 9 μl of a cell lysate and 1 μl of YJ101 (20 or M), YJ102 (20 or 30 μM), or YJ103 (20 or 40 μM) were mixed in a microcentrifuge tube and incubated at room temperature for 1 hour. A control group was treated with 1 μl of DMSO. After incubation, 1 μl (1 mg/ml) of Pronase (Cat. 10 165 921 001, Roche) diluted to 1 mg/ml using a 1×TNC buffer was added to the microcentrifuge tube and incubated at 37° C. for 15 minutes. After incubation, ⅕ volume of a 5×SDS-PAGE loading buffer was added, heated at 100° C. for 5 minutes, and then SDS-PAGE and Coomassie blue staining were performed. In addition, UCB-MSCs were dispensed at 4×10^5 cells/ml in a 60 mm culture dish, and after 24 hours, 4 μg of FLAG-CtBP1 or FLAG-CtBP2 DNA was transfected using 4 μl of jetPRIME. After 48 hours, the cells were collected, and proteins were extracted and quantified using the same method as above. DARTS assay was performed with the cell lysate of CtBP1 and Y102 labeled with FLAG, and Western blot assay was performed with a flag antibody (Cat. F3165, Sigma).

As to `CCc1ccc(N(C(=O)COC)c2nc3cc(Cl)ccc3o2)cc1` [YJ102], in assay [1], the “CtBP1-LSD1 complex binding to Sox2 gene promoter” value is on record as “bound to a Sox2 gene promoter”, the “CtBP1 binding to HES1 gene promoter” value is “increased”, the HES1 expression result is recorded as “decrease HES1 expression” and the OCT4 expression entry is given as “induce the expression of OCT4”. In addition, in assay [1], the Sox2 expression entry is given as “increase Sox2 expression” and the “amount of CtBP1-LSD1 complex binding to OCT4 gene promoter” value is “increased”. The “overexpressed CtBP1 (flag-CtBP1) protection from degradation by pronase (DARTS)” value in assay [2] (FLAG-CtBP1 transfected UCB-MSC lysate, YJ101 (20 or M), YJ102 (20 or 30 μM), YJ103 (20 or 40 μM)) is given as “protected”. The “CtBP1 protection from degradation by pronase (DARTS)” value in assay [2] (endogenous CtBP1, UCB-MSC lysate, YJ102 20 or 30 μM) was “protected”. Also, in assay [2] (human UCB-MSC), the “binding to CtBP1” value was “bound to CtBP1”.
